From ChEMBL document CHEMBL1126443, “Cholinergic agents: aldehyde, ketone, and oxime analogues of the muscarinic agonist UH5” (Bioorg Med Chem Lett, 1992)

What was measured:
[1] = target: T1, Muscarinic acetylcholine receptor M2 (Rattus norvegicus, UniProt P10980); assay: Displacement of [3H]QNB from Muscarinic acetylcholine receptor M2 from rat heart homogenates; type: tissue-based
T1 sequence (P10980 whole entry): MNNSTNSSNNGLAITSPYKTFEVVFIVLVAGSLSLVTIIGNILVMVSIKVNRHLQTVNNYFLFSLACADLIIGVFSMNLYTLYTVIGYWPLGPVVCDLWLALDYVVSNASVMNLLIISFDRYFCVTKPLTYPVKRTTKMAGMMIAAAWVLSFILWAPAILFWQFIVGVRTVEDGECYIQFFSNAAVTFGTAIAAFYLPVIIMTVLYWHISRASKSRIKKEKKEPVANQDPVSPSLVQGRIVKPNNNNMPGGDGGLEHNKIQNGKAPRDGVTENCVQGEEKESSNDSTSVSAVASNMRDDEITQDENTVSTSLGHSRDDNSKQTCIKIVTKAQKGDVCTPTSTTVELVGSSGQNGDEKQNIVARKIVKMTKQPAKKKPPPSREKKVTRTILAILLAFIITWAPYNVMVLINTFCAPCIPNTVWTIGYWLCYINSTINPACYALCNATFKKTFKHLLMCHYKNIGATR

[2] = target: T2, Muscarinic acetylcholine receptor M1 (Homo sapiens, UniProt P11229); assay: Displacement of [3H]QNB in genetically transformed mouse cell line (m1C2) transfected with Muscarinic acetylcholine receptor M1
T2 sequence (P11229 whole entry): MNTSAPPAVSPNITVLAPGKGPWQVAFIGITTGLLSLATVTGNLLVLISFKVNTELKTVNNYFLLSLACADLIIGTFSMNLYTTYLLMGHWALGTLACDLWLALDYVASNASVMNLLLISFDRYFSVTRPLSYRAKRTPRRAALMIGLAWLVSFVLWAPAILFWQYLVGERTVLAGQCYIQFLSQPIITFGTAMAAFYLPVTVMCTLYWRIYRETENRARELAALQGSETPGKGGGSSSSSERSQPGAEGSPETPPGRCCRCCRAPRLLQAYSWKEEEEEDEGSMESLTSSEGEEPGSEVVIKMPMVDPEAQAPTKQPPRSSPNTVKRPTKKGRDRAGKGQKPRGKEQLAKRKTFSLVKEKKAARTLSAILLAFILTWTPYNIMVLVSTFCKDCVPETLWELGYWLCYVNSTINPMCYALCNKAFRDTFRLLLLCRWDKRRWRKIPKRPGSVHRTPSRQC

[3] = target: Muscarinic acetylcholine receptor; assay: Inhibition of 0.03 nM [3H]quinuclidinyl benzylate binding to rat neocortex muscarinic receptor; type: protein assay
[4] = target: Muscarinic acetylcholine receptor; assay: Inhibition of 0.1 nM [3H]cis-methyldioxolane binding to rat neocortex muscarinic receptor; type: protein assay
[5] = Selectivity ratio of M2/m1 receptors
[6] = target: T3, Muscarinic acetylcholine receptor (Rattus norvegicus) (UniProt P08482+P08483+P08485+P08911+P10980); assay: Relative binding efficacy for muscarinic receptors using QNB and CMD; type: protein assay
[7] = target: T3, Muscarinic acetylcholine receptor (Rattus norvegicus); assay: Percent inhibition towards muscarinic receptor in rat neocortex using 0.03 nM [3H]quinuclidinyl benzylate receptor binding assay (RQMB) was determined
[8] = target: T3, Muscarinic acetylcholine receptor (Rattus norvegicus); assay: Percent inhibition towards muscarinic receptor in rat neocortex using 0.1 nM [3H]cis-methyldioxolane receptor binding assay (RCMD)

`C[N+](C)(C)CC#CCOC(=O)Nc1cccc(Cl)c1.[Cl-]` gave an IC50 [1] of 34.1 µM, an IC50 [2] of 7.24 µM and an IC50 [3] of 5.388 µM. For the same compound, the IC50 [4] was 0.064 µM, the Selectivity ratio [5] was 4.7 and the Efficacy ratio [6] was 84.
`CC(=O)CCC#CCN1CCCC1` gave an IC50 [3] of 7.28 µM, an IC50 [4] of 0.214 µM and an Efficacy ratio [6] of 34.
`CC(=O)CCC#CCN(C)C` gave an IC50 [1] of 18.9 µM, an IC50 [2] of 51.8 µM and an IC50 [3] of 65.6 µM. The IC50 [4] was 0.068 µM, the Selectivity ratio [5] was 0.4 and the Efficacy ratio [6] was 965.
Work on `CC(C=O)CC#CCN(C)C` (centres undefined) yielded an inhibition [7] of 0% and an inhibition [8] of 0%.
In the case of `O=C1CCCN1CC#CCN1CCCC1` [OXOTREMORINE], the IC50 [2] is reported as 0.364 µM, the IC50 [3] is reported as 0.407 µM and the IC50 [4] is reported as 0.0015 µM. It also gave a Selectivity ratio [5] of 2.4 and an Efficacy ratio [6] of 308.
In the case of `C/C(=N\O)C(C)CC#CCN(C)C` (centres undefined), the inhibition [7] is reported as 9% and the inhibition [8] is reported as 12%.
In the case of `CC(/C=N/O)CC#CCN1CCCC1` (centres undefined), the IC50 [1] is reported as 5.5 µM, the IC50 [2] is reported as 0.92 µM and the IC50 [3] is reported as 1.928 µM. The IC50 [4] was 0.021 µM, the Selectivity ratio [5] was 4.8 and the Efficacy ratio [6] was 92.
Compound `C/C(CCC#CCN(C)C)=N\O` has an IC50 [3] of 36.769 µM, an IC50 [4] of 0.139 µM and an Efficacy ratio [6] of 265.
For `C/C(CCC#CCN1CCCC1)=N\O`, the IC50 [3] was 1.254 µM, the IC50 [4] was 0.373 µM and the Efficacy ratio [6] was 3.
For `CO/N=C/C(C)CC#CCN(C)C` (centres undefined), the inhibition [7] was 4% and the inhibition [8] was 6%.
For `CO/N=C/C(C)CC#CCN1CCCC1` (centres undefined), the inhibition [7] was 15% and the inhibition [8] was 27%.
Work on `CO/N=C(\C)CCC#CCN1CCCC1` yielded an inhibition [7] of 17% and an inhibition [8] of 5%.
`CC(=O)N(C)CC#CCN1CCCC1` showed an IC50 [1] of 2.01 µM, an IC50 [2] of 2.45 µM and an IC50 [3] of 2.447 µM. The IC50 [4] was 0.0045 µM, the Selectivity ratio [5] was 0.9 and the Efficacy ratio [6] was 544.
With `CO/N=C(\C)C(C)CC#CCN(C)C` (centres undefined) the inhibition [7] was 3% and the inhibition [8] was 5%.
`CO/N=C(\C)CCC#CCN(C)C` showed an inhibition [7] of 1% and an inhibition [8] of 5%.
`CC(=O)C(C)CC#CCN1CCCC1` (centres undefined) showed an IC50 [1] of 6.5 µM, an IC50 [2] of 2.8 µM and an IC50 [3] of 5.696 µM. The IC50 [4] was 0.059 µM, the Selectivity ratio [5] was 2.3 and the Efficacy ratio [6] was 97.
With `CC(=O)N(C)CC#CCN(C)C` the IC50 [1] was 4.46 µM, the IC50 [2] was 87.9 µM and the IC50 [3] was 87.876 µM. It also gave an IC50 [4] of 0.0216 µM, a Selectivity ratio [5] of 0.2 and an Efficacy ratio [6] of 4070.
Work on `CC(=O)C(C)CC#CCN(C)C` (centres undefined) yielded an IC50 [3] of 55.4 µM, an IC50 [4] of 0.101 µM and an Efficacy ratio [6] of 549.
In the case of `CC(/C=N/O)CC#CCN(C)C` (centres undefined), the IC50 [1] is reported as 34.2 µM, the IC50 [2] is reported as 25.9 µM and the IC50 [3] is reported as 13.23 µM. It also gave an IC50 [4] of 0.03 µM, a Selectivity ratio [5] of 1.3 and an Efficacy ratio [6] of 441.
In the case of `CO/N=C(\C)C(C)CC#CCN1CCCC1` (centres undefined), the inhibition [7] is reported as 26% and the inhibition [8] is reported as 21%.
`CC(C=O)CC#CCN1CCCC1` (centres undefined) showed an inhibition [7] of 9% and an inhibition [8] of 1%.
Compound `C/C(=N\O)C(C)CC#CCN1CCCC1` (centres undefined) has an inhibition [7] of 15% and an inhibition [8] of 21%.
